The values below come from publication PMC6812191 (Heliyon, 2019).

Format in all cases: cell-based
The target of series [1] is hERG potassium channel (Homo sapiens, UniProt Q12809). Briefly: whole-cell patch clamp, tail current inhibition.
Series [2] has as its target hERG potassium channel (Homo sapiens, UniProt Q12809, T623A). Nature of the series: whole-cell patch clamp, inhibition at […].
In series [3] the target is hERG potassium channel (Homo sapiens, UniProt Q12809, S624A). Briefly: whole-cell patch clamp, concentration response.
The target in series [4] is hERG potassium channel (Homo sapiens, UniProt Q12809, F656A). Briefly: whole-cell patch clamp, inhibition at […].
Series [5] concerns the target hERG potassium channel (Homo sapiens, UniProt Q12809, V625A). Nature of the series: whole-cell patch clamp, inhibition at […].
The target of series [6] is hERG potassium channel (Homo sapiens, UniProt Q12809, Y652A). Briefly: whole-cell patch clamp, inhibition at […].

Chain of hERG potassium channel (Homo sapiens, UniProt Q12809, V625A) (Q12809 whole entry V625A): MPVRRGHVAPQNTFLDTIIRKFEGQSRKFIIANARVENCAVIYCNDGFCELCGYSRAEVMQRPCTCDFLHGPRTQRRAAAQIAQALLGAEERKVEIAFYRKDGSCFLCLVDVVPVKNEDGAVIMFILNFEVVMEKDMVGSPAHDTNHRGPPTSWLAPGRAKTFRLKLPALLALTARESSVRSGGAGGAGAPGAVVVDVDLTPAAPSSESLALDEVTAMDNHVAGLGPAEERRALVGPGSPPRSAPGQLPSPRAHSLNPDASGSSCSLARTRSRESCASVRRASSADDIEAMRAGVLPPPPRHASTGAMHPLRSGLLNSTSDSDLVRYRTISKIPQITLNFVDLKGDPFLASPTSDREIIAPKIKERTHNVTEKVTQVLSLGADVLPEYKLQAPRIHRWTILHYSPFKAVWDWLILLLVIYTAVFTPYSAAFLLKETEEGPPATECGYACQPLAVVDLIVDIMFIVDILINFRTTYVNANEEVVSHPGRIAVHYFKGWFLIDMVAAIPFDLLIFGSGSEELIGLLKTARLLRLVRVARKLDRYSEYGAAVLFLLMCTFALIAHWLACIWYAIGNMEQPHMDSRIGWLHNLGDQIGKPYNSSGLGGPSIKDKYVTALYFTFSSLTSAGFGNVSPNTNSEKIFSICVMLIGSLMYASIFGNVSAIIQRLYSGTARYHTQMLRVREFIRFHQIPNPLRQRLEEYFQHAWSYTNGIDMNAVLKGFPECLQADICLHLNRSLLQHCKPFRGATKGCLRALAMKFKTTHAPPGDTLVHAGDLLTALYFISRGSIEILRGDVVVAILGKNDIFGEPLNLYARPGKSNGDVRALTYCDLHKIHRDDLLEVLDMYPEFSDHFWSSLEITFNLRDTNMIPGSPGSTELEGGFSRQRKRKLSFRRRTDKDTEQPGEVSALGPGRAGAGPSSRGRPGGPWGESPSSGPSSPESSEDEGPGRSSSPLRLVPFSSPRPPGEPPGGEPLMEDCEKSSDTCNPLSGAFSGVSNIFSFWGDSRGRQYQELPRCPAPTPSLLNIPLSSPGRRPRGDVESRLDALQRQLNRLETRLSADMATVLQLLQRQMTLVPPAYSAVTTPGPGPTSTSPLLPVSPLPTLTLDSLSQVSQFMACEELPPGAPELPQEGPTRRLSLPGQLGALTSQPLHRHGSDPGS
Chain of hERG potassium channel (Homo sapiens, UniProt Q12809, S624A) (Q12809 whole entry S624A): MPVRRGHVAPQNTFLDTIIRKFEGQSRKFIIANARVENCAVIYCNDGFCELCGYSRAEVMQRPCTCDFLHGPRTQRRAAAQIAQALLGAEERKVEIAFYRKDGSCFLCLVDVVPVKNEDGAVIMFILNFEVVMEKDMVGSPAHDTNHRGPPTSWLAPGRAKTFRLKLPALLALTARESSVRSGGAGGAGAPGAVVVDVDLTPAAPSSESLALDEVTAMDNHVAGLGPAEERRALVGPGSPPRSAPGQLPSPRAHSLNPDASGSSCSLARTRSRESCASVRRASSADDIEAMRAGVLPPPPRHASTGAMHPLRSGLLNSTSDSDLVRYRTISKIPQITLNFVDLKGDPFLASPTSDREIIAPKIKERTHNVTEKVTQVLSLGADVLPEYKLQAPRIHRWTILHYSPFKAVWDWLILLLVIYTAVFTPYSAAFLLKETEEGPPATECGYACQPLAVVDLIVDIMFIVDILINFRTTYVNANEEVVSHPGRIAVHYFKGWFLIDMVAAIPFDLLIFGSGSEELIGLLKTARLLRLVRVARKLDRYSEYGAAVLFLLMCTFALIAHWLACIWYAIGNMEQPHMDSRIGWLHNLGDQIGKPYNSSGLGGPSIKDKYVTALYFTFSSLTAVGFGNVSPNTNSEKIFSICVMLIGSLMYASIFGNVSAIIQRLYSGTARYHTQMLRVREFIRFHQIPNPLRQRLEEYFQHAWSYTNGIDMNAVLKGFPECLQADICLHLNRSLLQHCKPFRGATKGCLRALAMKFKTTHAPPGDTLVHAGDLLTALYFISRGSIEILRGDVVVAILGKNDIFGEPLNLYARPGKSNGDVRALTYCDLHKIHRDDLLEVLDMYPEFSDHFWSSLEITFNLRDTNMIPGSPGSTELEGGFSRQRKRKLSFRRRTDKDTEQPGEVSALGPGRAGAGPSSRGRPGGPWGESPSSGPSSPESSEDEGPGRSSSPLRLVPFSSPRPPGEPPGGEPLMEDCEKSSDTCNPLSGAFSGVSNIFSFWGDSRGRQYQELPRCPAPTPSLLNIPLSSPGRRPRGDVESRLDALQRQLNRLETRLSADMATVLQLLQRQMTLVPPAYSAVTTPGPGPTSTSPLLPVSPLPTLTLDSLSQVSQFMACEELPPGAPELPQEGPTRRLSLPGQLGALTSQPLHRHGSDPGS
Chain of hERG potassium channel (Homo sapiens, UniProt Q12809) (Q12809 whole entry): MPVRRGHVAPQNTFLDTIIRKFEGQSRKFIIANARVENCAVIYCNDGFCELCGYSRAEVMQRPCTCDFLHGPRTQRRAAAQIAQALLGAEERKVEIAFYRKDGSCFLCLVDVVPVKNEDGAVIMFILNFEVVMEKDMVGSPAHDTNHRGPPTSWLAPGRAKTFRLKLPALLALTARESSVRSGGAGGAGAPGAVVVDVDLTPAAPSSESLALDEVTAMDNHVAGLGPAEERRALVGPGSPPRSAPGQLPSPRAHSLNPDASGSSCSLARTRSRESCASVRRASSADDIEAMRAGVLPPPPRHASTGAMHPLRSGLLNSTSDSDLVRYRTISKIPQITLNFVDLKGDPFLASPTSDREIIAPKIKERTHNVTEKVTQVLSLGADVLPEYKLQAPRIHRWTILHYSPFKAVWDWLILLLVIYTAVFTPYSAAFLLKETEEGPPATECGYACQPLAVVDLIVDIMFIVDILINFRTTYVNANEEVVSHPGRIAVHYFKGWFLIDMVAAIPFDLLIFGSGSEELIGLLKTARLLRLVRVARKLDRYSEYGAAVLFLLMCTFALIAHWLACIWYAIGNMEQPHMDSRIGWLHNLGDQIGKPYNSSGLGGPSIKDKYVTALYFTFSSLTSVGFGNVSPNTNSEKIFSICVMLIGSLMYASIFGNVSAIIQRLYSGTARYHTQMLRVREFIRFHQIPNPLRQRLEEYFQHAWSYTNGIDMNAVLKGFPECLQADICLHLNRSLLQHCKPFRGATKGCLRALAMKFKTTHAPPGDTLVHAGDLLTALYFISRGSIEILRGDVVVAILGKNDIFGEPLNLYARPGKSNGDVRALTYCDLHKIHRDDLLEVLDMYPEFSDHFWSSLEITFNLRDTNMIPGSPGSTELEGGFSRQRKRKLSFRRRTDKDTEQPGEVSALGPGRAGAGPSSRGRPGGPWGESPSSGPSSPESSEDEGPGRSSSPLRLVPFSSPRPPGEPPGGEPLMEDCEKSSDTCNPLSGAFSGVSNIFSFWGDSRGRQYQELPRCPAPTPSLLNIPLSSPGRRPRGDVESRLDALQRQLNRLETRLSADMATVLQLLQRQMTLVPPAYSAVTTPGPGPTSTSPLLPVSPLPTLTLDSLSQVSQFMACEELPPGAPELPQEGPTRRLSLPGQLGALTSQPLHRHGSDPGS
Chain of hERG potassium channel (Homo sapiens, UniProt Q12809, T623A) (Q12809 whole entry T623A): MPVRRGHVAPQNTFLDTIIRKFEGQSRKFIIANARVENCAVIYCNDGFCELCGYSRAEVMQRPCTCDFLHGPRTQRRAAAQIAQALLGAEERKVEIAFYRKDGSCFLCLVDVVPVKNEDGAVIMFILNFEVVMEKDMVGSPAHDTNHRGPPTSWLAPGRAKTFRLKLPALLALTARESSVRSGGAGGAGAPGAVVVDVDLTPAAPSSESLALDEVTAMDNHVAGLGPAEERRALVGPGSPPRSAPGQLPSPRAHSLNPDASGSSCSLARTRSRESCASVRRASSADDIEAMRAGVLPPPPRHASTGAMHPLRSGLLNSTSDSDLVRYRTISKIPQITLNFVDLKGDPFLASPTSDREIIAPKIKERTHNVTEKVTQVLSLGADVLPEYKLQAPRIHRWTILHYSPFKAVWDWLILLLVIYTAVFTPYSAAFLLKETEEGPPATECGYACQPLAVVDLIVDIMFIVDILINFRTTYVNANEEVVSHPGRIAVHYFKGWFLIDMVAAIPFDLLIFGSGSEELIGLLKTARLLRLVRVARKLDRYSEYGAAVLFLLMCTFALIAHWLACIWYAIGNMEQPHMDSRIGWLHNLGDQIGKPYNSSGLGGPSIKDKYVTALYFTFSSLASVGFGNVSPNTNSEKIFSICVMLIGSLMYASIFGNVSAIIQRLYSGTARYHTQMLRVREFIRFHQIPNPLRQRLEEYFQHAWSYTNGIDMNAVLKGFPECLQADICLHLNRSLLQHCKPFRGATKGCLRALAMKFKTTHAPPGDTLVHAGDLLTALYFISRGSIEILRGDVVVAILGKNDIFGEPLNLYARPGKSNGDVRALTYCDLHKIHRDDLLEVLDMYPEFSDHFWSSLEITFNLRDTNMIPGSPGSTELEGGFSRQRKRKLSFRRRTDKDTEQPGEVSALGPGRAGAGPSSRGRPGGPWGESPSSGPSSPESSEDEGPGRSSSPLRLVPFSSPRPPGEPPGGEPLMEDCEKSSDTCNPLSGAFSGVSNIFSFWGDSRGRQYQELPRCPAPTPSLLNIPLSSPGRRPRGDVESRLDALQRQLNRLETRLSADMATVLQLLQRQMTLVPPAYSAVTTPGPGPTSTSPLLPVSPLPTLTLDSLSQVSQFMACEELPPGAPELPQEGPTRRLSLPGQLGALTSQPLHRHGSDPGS

Consider `CC1=C(O)C(=O)C=C2C1=CC=C1[C@@]2(C)CC[C@@]2(C)[C@@H]3C[C@](C)(C(=O)O)CC[C@]3(C)CC[C@]12C` [Celastrol], for which the IC50 in series [1] worked out at 830 nM; in series [3] it was 4000 ± 300 nM. Also, the inhibition at 1 µM in series [2] worked out at 36.2 ± 0.4%; in series [4], 34.5 ± 1.5%; in series [5], 51.6 ± 4.3%; in series [6], 56.3 ± 1.6%.
